According to PubChem BioAssay AID330 (DTP/NCI, 2004):
“And” between values parts separate entries of the source, which are not always exact repeats. Identical values can stand only once. Toxic doses and inconclusive results are not listed. The calls were made as follows: active = survival T/C of 150% or more; inactive = T/C below 125% in these data.

System: P388 leukemia ip, CD2F1 mice, survival T/C
Assay: NCI In Vivo Anticancer Drug Screen. Data for tumor model P388 Leukemia (intraperitoneal) in CD2F1 (CDF1) mice
Conditions: endpoint: median survival time, higher = longer survival
Procedure, shortened: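 Mice carrying the transplanted tumor received test compound or vehicle. Survival was recorded in each group, and the value is the treated-group measurement divided by that of the vehicle-treated control group.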

[1] = dose: 50.0 mg/kg/injection, schedule: Q01DX009 (ip), vehicle: saline with Tween-80
[2] = dose: 100.0 mg/kg/injection, schedule: Q01DX009 (ip), vehicle: saline with Tween-80
[3] = dose: 200.0 mg/kg/injection, schedule: Q01DX009 (ip), vehicle: saline with Tween-80
[4] = dose: 50.0 mg/kg/injection, schedule: Q01DX005 (ip), vehicle: Klucel (hydroxypropylcellulose) (HPC)
[5] = dose: 100.0 mg/kg/injection, schedule: Q01DX005 (ip), vehicle: Klucel (hydroxypropylcellulose) (HPC)
[6] = dose: 200.0 mg/kg/injection, schedule: Q01DX005 (ip), vehicle: Klucel (hydroxypropylcellulose) (HPC)
[7] = dose: 60.0 mg/kg/injection, schedule: Q01DX005 (ip), vehicle: saline with Tween-80
[8] = dose: 120.0 mg/kg/injection, schedule: Q01DX005 (ip), vehicle: saline with Tween-80
[9] = dose: 240.0 mg/kg/injection, schedule: Q01DX005 (ip), vehicle: saline with Tween-80
[10] = dose: 50.0 mg/kg/injection, schedule: Q01DX009 (ip), vehicle: Klucel (hydroxypropylcellulose) (HPC)
[11] = dose: 100.0 mg/kg/injection, schedule: Q01DX009 (ip), vehicle: Klucel (hydroxypropylcellulose) (HPC)
[12] = dose: 200.0 mg/kg/injection, schedule: Q01DX009 (ip), vehicle: Klucel (hydroxypropylcellulose) (HPC)
[13] = dose: 25.0 mg/kg/injection, schedule: Q01DX009 (ip), vehicle: saline with Tween-80
[14] = dose: 12.5 mg/kg/injection, schedule: Q01DX009 (ip), vehicle: saline with Tween-80
[15] = dose: 100.0 mg/kg/injection, schedule: Q01DX005 (ip), vehicle: saline with Tween-80

Measured: T/C

Cc1cccc(=O)[n-]1.Cc1cccc(=O)[n-]1.Cc1cccc(=O)[n-]1.Cc1cccc(=O)[n-]1.[Cr+2].[Cr+2]
inactive: dose: 100.0 mg/kg/injection, schedule: Q04DX002 (ip), vehicle: Klucel (hydroxypropylcellulose) (HPC) 90 % of control | dose: 200.0 mg/kg/injection, schedule: Q04DX002 (ip), vehicle: Klucel (hydroxypropylcellulose) (HPC) 110 % of control | dose: 400.0 mg/kg/injection, schedule: Q04DX002 (ip), vehicle: Klucel (hydroxypropylcellulose) (HPC) 120 % of control

CCOC(=O)C(=CN(C)c1ccccc1)C(=O)OCC
inactive: [1] 108 % of control | [2] 108 % of control | [3] 101 % of control

COc1ccc2c(c1)c(COC(C)=O)c(C)c[n+]2[O-]
inactive: [4] 100 % of control | [5] 104 % of control | [6] 88 % of control

O=S(=O)(c1ccc(F)cc1)N(CCCCCN(S(=O)(=O)c1ccc(F)cc1)S(=O)(=O)c1ccc(F)cc1)S(=O)(=O)c1ccc(F)cc1
inactive: [7] 97 % of control | [8] 91 % of control | [9] 90 % of control

C=CCSc1nc2ccc(N3C(=O)C4C5C=CC(C5)C4C3=O)cc2s1 (configuration not stated)
inactive: [10] 87 % of control | [11] 92 % of control | [12] 93 % of control

CCC1CN2CCc3cc(OC)c(OC)cc3C2CC1CC1c2cc(OC)c(OC)cc2CCN1C(=O)C(Cc1c[nH]c2ccccc12)NC(=O)OC(C)(C)C (configuration not stated)
inactive: [13] 105 % of control | [1] 115 % of control | dose: 66.0 mg/kg/injection, schedule: Q01DX009 (ip), vehicle: saline with Tween-80 104 % of control | dose: 100.0 mg/kg/injection, schedule: Q04DX003 (ip), vehicle: saline with Tween-80 104 % of control

O=C(c1ccccc1)N1CCCSC1=S
inactive: [7] 101 % of control | [8] 105 % of control | [9] 104 % of control

CP1(=O)CCC2=C1CCc1cc(O)ccc12 (configuration not stated)
inactive: dose: 6.25 mg/kg/injection, schedule: Q01DX009 (ip), vehicle: Klucel (hydroxypropylcellulose) (HPC) 100 % of control | dose: 12.5 mg/kg/injection, schedule: Q01DX009 (ip), vehicle: Klucel (hydroxypropylcellulose) (HPC) 100 % of control | dose: 25.0 mg/kg/injection, schedule: Q01DX009 (ip), vehicle: Klucel (hydroxypropylcellulose) (HPC) 103 % of control and 106 % of control

CCCCCCC(=O)/C=C/c1ccc(OC)c(OC)c1
inactive: [1] 107 % of control | [2] 114 % of control | [3] 115 % of control

Cc1ccc(S(=O)(=O)N=S(=O)(CCCl)CCCl)cc1
inactive: dose: 12.5 mg/kg/injection, schedule: Q04DX003 (ip), vehicle: saline 98 % of control | dose: 25.0 mg/kg/injection, schedule: Q04DX003 (ip), vehicle: saline 98 % of control | dose: 50.0 mg/kg/injection, schedule: Q04DX003 (ip), vehicle: saline 96 % of control

Cc1ccccc1C(=O)Nc1ccccc1-c1ccccc1
inactive: [14] 94 % of control | [13] 100 % of control | [1] 106 % of control | dose: 50.0 mg/kg/injection, schedule: Q01DX009 (ip), vehicle: saline 95 % of control | dose: 200.0 mg/kg/injection, schedule: Q01DX009 (ip), vehicle: saline 93 % of control

Cc1ccc(C(O)(c2ccc(C)cc2)C2(O)CCCCC2)cc1
inactive: dose: 50.0 mg/kg/injection, schedule: Q01DX005 (ip), vehicle: saline with Tween-80 109 % of control | [15] 100 % of control | dose: 200.0 mg/kg/injection, schedule: Q01DX005 (ip), vehicle: saline with Tween-80 101 % of control

S=C1N(c2ccc(Cl)cc2)C2=C(N=Nc3ccccc3Cl)C(=Nc3ccccc3S2)N1c1ccccn1
inactive: [15] 108 % of control

C[n+]1ccccc1-c1ccc[n+](CCCCC[n+]2cccc(-c3cccc[n+]3C)c2)c1
inactive: dose: 50.0 mg/kg/injection, schedule: Q01DX005 (ip), vehicle: saline 100 % of control and 104 % of control | dose: 100.0 mg/kg/injection, schedule: Q01DX005 (ip), vehicle: saline 99 % of control and 104 % of control | dose: 200.0 mg/kg/injection, schedule: Q01DX005 (ip), vehicle: saline 107 % of control

CCCCCCCCC1(O)OC(=O)C(C)=C1C (configuration not stated)
inactive: dose: 12.5 mg/kg/injection, schedule: Q04DX003 (ip), vehicle: saline with Tween-80 100 % of control | dose: 25.0 mg/kg/injection, schedule: Q04DX003 (ip), vehicle: saline with Tween-80 100 % of control | dose: 50.0 mg/kg/injection, schedule: Q04DX003 (ip), vehicle: saline with Tween-80 103 % of control

CCOC(=O)c1cnc2ccccc2c1N=[N+]=[N-]
inactive: [7] 94 % of control | [8] 99 % of control | [9] 103 % of control

CCCCC(=O)C(=O)c1ccc(O)cc1O
inactive: [10] 116 % of control | [11] 114 % of control | [12] 110 % of control

CCCCCC(O)C1C(=O)OC(C)C(O)/C=C/C=C/C=C/C=C/C=C(\C)C(O)C(O)C(O)CC(O)CC(O)CC(O)CC(O)CC1O (configuration not stated)
inactive: dose: 0.5 mg/kg/injection, schedule: Q01DX010 (ip), vehicle: saline 100 % of control | dose: 1.0 mg/kg/injection, schedule: Q01DX010 (ip), vehicle: saline 100 % of control | dose: 2.0 mg/kg/injection, schedule: Q01DX010 (ip), vehicle: saline 100 % of control and 90 % of control | dose: 4.0 mg/kg/injection, schedule: Q01DX010 (ip), vehicle: saline 90 % of control | dose: 8.0 mg/kg/injection, schedule: Q01DX010 (ip), vehicle: saline 100 % of control

NC1C[S][Sn]2([O]C1=O)[O]C(=O)C(N)C[S]2 (configuration not stated)
inactive: [4] 99 % of control | [5] 100 % of control | [6] 100 % of control

CSC(SC)=C1C(=O)NC(=O)NC1=O
inactive: dose: 3.12 mg/kg/injection, schedule: Q01DX009 (ip), vehicle: saline with Tween-80 104 % of control | dose: 6.25 mg/kg/injection, schedule: Q01DX009 (ip), vehicle: saline with Tween-80 90 % of control | dose: 6.25 mg/kg/injection, schedule: Q01DX009 (ip), vehicle: saline 111 % of control | [14] 120 % of control | dose: 12.5 mg/kg/injection, schedule: Q01DX009 (ip), vehicle: saline 111 % of control | dose: 25.0 mg/kg/injection, schedule: Q01DX009 (ip), vehicle: saline 124 % of control | [4] 95 % of control | [5] 101 % of control

CCc1cnc(=S)n(-c2ccccc2)c1
inactive: dose: 100.0 mg/kg/injection, schedule: Q01DX001 (ip), vehicle: saline with Tween-80 99 % of control | dose: 200.0 mg/kg/injection, schedule: Q01DX001 (ip), vehicle: saline with Tween-80 95 % of control

CN=C(N)N/N=C(\c1ccc(F)cc1)c1ccccc1Cl
inactive: dose: 25.0 mg/kg/injection, schedule: Q04DX002 (ip), vehicle: saline with Tween-80 101 % of control | dose: 50.0 mg/kg/injection, schedule: Q04DX002 (ip), vehicle: saline with Tween-80 100 % of control | dose: 100.0 mg/kg/injection, schedule: Q04DX002 (ip), vehicle: saline with Tween-80 98 % of control

O=C(O)/C=C\S(=O)(=O)O
inactive: dose: 25.0 mg/kg/injection, schedule: Q04DX002 (ip), vehicle: saline 116 % of control | dose: 50.0 mg/kg/injection, schedule: Q04DX002 (ip), vehicle: saline 106 % of control | dose: 100.0 mg/kg/injection, schedule: Q04DX002 (ip), vehicle: saline 93 % of control

CN(C)c1ccc(N(C)C)c(C(O)(c2ccccc2)c2ccccc2)c1
inactive: [1] 88 % of control
